According to patent US11110102B2, “Antifungal agents used in combination” (Scynexis, Inc., priority 2017, dated 2021):
“And” between values parts separate entries of the source, which are not always exact repeats. Identical values can stand only once. Like-named read-outs stand apart in the source and are kept apart here.

Assays:
Test in all cases: Checkerboard combination MIC testing
Assay type in all cases: cell-based, Aspergillus fumigatus
A. fumigatus MRL #28500 = settings: read at 48 hours, duplicate
Text: (§1) To determine the type of interaction between a representative compound of the enfumafungin derivatives (SCY-078) with several antifungal agents against Aspergillus fumigatus, the most frequent mold causing invasive disease in humans, the checkerboard method was used. The citrate salt of the compound was used in the studies.
(§2) The checkerboard method involves the determination of percent growth inhibition of fungal cells in the presence of different combinations of drugs. Percent growth inhibition is calculated relative to growth in control wells which contain only cells and no drug. The assay was performed in 96-well microplates in which each row and each column contained twofold serial dilutions of drug A and drug B at concentrations ranging from 0 to slightly higher than their minimum inhibitory concentration (MIC). […] Then the inoculum was added to each well and the growth was evaluated after 48 hrs incubation to determine the first well in which growth was inhibited. The checkerboard-based determination of MICs of antifungal agents in combination was followed by further analysis employing the nonparametric fractional inhibitory concentration index (FICI), which is defined by the following equation:
(§3) [formula] where MIC-A and MIC-B are the MICs of drugs A and B, respectively.
(§4) Each drug was initially diluted in either sterile, distilled water or in DMSO, depending on whether the drug was water-soluble or water-insoluble, respectively.
(§5) Stock solution of SCY-078 was prepared in DMSO at 200 times the concentration desired for use in the drug plates. Serial dilutions of stock solution were conducted in DMSO to obtain eleven 2-fold dilutions of the drug. The SCY-078 solution was then diluted to 4 times the desired concentration in RPMI-1640 medium so that the DMSO would not limit growth of the organism and so that the quantity of DMSO was the same for every dilution.
(§6) Two 96-well plates are needed to conduct a combination test. Using a multichannel pipette, 50 μl of the lowest concentration of the first drug (Drug A) was added to each well of column 1 of the first plate (plate A) and column 1 of the second plate (plate B; rows A-D). Then, 50 μl of the next highest working dilution of Drug A was added to each well in column 2, continuing with dilutions until all columns 1-11 were filled. Column 12 was left empty. 50 μl of the lowest concentration of Drug B was added to each well in Row D of plate B. 50 μl of the next highest working dilution of Drug B was added to each well in row C of plate B, continuing with dilutions until all rows through row B of plate A were filled.
(§7) Following the above, 100 μl of organism inoculum was added to every well. The plates were then incubated for 48 hours and visually read after incubation.
(§8) The objective of the study was to determine whether the combination of SCY-078 with voriconazole, isavuconazole, or amphotericin B would result in a combined in vitro antifungal activity exceeding the sum of the activities of each drug alone. Combination MIC testing was performed using the checkerboard assay described above.
A. fumigatus 28500 has a CYP51 mutation at F46Y.
(§9) Initial MIC determinations of the individual antifungals were performed according to the Clinical and Laboratory Standards Institute (CLSI) M38-A2 standard for the susceptibility testing of filamentous fungi.
(§10) Combination MIC testing was performed using a checkerboard test method according to the Center for Medical Mycology SOP A11.3. The checkerboard combination test method is a modification of the microdilution antifungal susceptibility test wherein two test compounds are combined in varying concentrations to determine whether they have synergistic, antagonistic, or no effect on the respective MIC values.
Antifungals were serially diluted two-fold in RPMI medium to produce eleven concentrations each and were combined in wells of a microtiter plate. Two rows consisting of serial dilutions of each individual drug were included. […]

A. fumigatus MRL #28378 = settings: A. fumigatus MRL 28378 (wild-type), read at 48 hours, duplicate; for MIC per drug in Combination: SCY-078 combined with isavuconazole; for MIC: Aspergillus fumigatus, SCY078, 48 h
Text: as §1, §2, §3, §4, §5, §6, §7, §8, §9, §10
(§11) Antifungals were serially diluted two-fold in RPMI medium to produce eleven concentrations each and were combined in wells of a microtiter plate. Two rows consisting of serial dilutions of each individual drug were included. All combination testing was conducted in duplicate. […]

A. fumigatus MRL #28382 = settings: A. fumigatus MRL 28382 (wild-type), read at 48 hours, duplicate; for MIC: Aspergillus fumigatus, SCY078, 48 h
Text: as §1, §2, §3, §4, §5, §6, §7, §8, §9, §10, §11

A. fumigatus MRL #28383 = settings: A. fumigatus MRL 28383 (azole-resistant), read at 48 hours, duplicate; for MIC: Aspergillus fumigatus, SCY078, 48 h, drug alone
Text: as §1, §2, §3, §4, §5, §6, §7, §8, §9, §10, §11

A. fumigatus MRL #20438 = settings: A. fumigatus MRL 20438 (wild-type), read at 48 hours, duplicate; for MIC per drug in Combination: SCY-078 combined with isavuconazole; for MIC: Aspergillus fumigatus, SCY078, 48 h
Text: as §1, §2, §3, §4, §5, §6, §7, §8, §9, §10, §11

A. fumigatus MRL #28401 = settings: A. fumigatus MRL 28401 (wild-type), read at 48 hours, duplicate; for MIC per drug in Combination: SCY-078 combined with isavuconazole; for MIC: Aspergillus fumigatus, SCY078, 48 h
Text: as §1, §2, §3, §4, §5, §6, §7, §8, §9, §10, §11

[1] = drug alone, SCY-078/isavuconazole test, read-out: MIC per drug Alone
[2] = SCY-078 combined with isavuconazole
[3] = SCY-078/isavuconazole test, read-out: MIC per drug Alone
[4] = SCY-078 combined with amphotericin B
[5] = SCY-078 combined with voriconazole
[6] = drug alone, SCY-078/voriconazole test
[7] = drug alone, SCY-078/amphotericin B test, read-out: MIC Alone
[8] = drug alone, SCY-078/voriconazole test, read-out: MIC Alone
[9] = drug alone, SCY-078/amphotericin B test
[10] = drug alone, SCY-078/isavuconazole test

C[C@@H](c1nc(-c2ccc(C#N)cc2)cs1)[C@](O)(Cn1cncn1)c1cc(F)ccc1F [Isavuconazole, isavuconazole]
MIC per drug in Combination (A. fumigatus MRL #28500; A. fumigatus MRL 28500 (azole-resistant, CYP51 F46Y), SCY-078 combined with isavuconazole): >8 µg/mL
MIC (A. fumigatus MRL #28500; Aspergillus fumigatus, SCY078, 48 h, read-out: MIC per drug Alone, A. fumigatus MRL 28500 (azole-resistant, CYP51 F46Y), drug alone, SCY-078/isavuconazole test): > 8 µg/mL
MIC per drug in Combination (A. fumigatus MRL #28378): 0.125 µg/mL and 0.25 µg/mL
MIC (A. fumigatus MRL #28378; [1]): 1 µg/mL
MIC per drug in Combination (A. fumigatus MRL #28382; [2]): 0.25 µg/mL
MIC per drug in Combination (A. fumigatus MRL #28383; [2]): >8 µg/mL and 4 µg/mL
MIC (A. fumigatus MRL #28383; [3]): > 8 µg/mL
MIC per drug in Combination (A. fumigatus MRL #20438): 0.5 µg/mL
MIC (A. fumigatus MRL #20438; [1]): 1 µg/mL
MIC per drug in Combination (A. fumigatus MRL #28401): 0.25 µg/mL
MIC (A. fumigatus MRL #28401; [1]): 1 µg/mL

CC(C)[C@@H](C)[C@@]1(C)CC[C@]2(C)[C@H]3CC[C@@H]4[C@@]5(COC[C@@]4(C)[C@@H](OC[C@](C)(N)C(C)(C)C)[C@H](n4ncnc4-c4ccncc4)C5)C3=CC[C@@]2(C)[C@@H]1C(=O)O [SCY-078, (1S,4aR,6aS,7R,8R,10aR,10bR,12aR,14R,15R)-15-[[(2R)-2-amino-2,3,3-trimethylbutyl]oxy]-8-[(1R)-1,2-dimethylpropyl]-14-[5-(4-pyridinyl)-1H-1,2,4-triazol-1-yl]-1,6,6a,7,8,9,10,10a,10b,11,12,12a-dodecahydro-1,6a,8,10a-tetramethyl-4H-1,4a-propano-2H-phenanthro[1,2-c]pyran-7-carboxylic acid]
MIC in Combination (A. fumigatus MRL #28500; A. fumigatus MRL 28500 (azole-resistant, CYP51 F46Y), SCY-078 combined with voriconazole): 1 µg/mL
MIC Alone (A. fumigatus MRL #28500; A. fumigatus MRL 28500 (azole-resistant, CYP51 F46Y), drug alone, SCY-078/voriconazole test): 8 µg/mL
MIC in Combination (A. fumigatus MRL #28378; [4]): 0.016 µg/mL
MIC per drug in Combination (A. fumigatus MRL #28378): 0.125 µg/mL
MIC in Combination (A. fumigatus MRL #28378; [5]): 0.5 µg/mL
MIC Alone (A. fumigatus MRL #28378; [6]): 4 µg/mL
MIC (A. fumigatus MRL #28378; [7]): 4 µg/mL
MIC (A. fumigatus MRL #28378; [1]): 4 µg/mL
MIC (A. fumigatus MRL #28378; [8]): 8 µg/mL
MIC Alone (A. fumigatus MRL #28382; [9]): 8 µg/mL
MIC per drug Alone (A. fumigatus MRL #28382; [10]): 4 µg/mL
MIC (A. fumigatus MRL #28382; [7]): 4 µg/mL
MIC (A. fumigatus MRL #28382; [1]): 8 µg/mL
MIC (A. fumigatus MRL #28382; [8]): 8 µg/mL
MIC in Combination (A. fumigatus MRL #28383; [4]): 0.016 µg/mL
MIC in Combination (A. fumigatus MRL #28383; [5]): 0.031 µg/mL
MIC (A. fumigatus MRL #28383; SCY-078/amphotericin B test, read-out: MIC Alone): 4 µg/mL
MIC (A. fumigatus MRL #28383; [3]): 4 µg/mL
MIC (A. fumigatus MRL #28383; SCY-078/voriconazole test, read-out: MIC Alone): 8 µg/mL
MIC in Combination (A. fumigatus MRL #20438; [4]): 0.016 µg/mL
MIC per drug in Combination (A. fumigatus MRL #20438): 0.016 µg/mL
MIC in Combination (A. fumigatus MRL #20438; [5]): 0.125 µg/mL and 0.25 µg/mL
MIC Alone (A. fumigatus MRL #20438; [6]): 4 µg/mL
MIC (A. fumigatus MRL #20438; [7]): 4 µg/mL
MIC (A. fumigatus MRL #20438; [1]): 4 µg/mL
MIC (A. fumigatus MRL #20438; [8]): 8 µg/mL
MIC in Combination (A. fumigatus MRL #28401; [4]): 0.016 µg/mL and 0.031 µg/mL
MIC per drug in Combination (A. fumigatus MRL #28401): 0.25 µg/mL and 0.5 µg/mL
MIC in Combination (A. fumigatus MRL #28401; [5]): 0.25 µg/mL and 0.125 µg/mL
MIC Alone (A. fumigatus MRL #28401; [9]): 8 µg/mL
MIC per drug Alone (A. fumigatus MRL #28401; [10]): 8 µg/mL
MIC (A. fumigatus MRL #28401; [7]): 4 µg/mL
MIC (A. fumigatus MRL #28401; [1]): 4 µg/mL
MIC (A. fumigatus MRL #28401; [8]): 8 µg/mL
